Here are results for one molecule from US9840532B2, “5′-substituted nucleoside compounds” (Eli Lilly and Company, priority 2015, dated 2017).

In one test the test system is Will-2 (DLBCL) cells. Nature of the test: Xenograft tumor model, DLBCL (WILL-2). The test is classed as in vivo, mouse. Particulars: oral gavage. On the procedure:
(§1) The purpose of this assay is to measure in a mouse model of cancer the reduction in tumor volume in response to test compound administration.
(§2) Grow A375 (melanoma) cells in DMEM/High glucose (HYCLONE™ cat. # SH30022) with 10% HI FBS (GIBCO® cat. #10082-147). Grow Will-2 (DLBCL) cells in RPMI 1640 with L-glutamine and 20% heat inactivated FBS. Grow Namalwa (Burkitt's lymphoma) cells (ATCC) in RPMI 1640 media supplemented with L-glutamine, 25 mM HEPES (GIBCO® 22400-089), 1 mM sodium pyruvate and 7.5% FBS. Grow Molt 4 cells in RPMI 1640 with L-glutamine, 25 mM HEPES [GIBCO 22400-089], 1 mM sodium pyruvate, and 10% FBS. Harvest cells and inject subcutaneously onto the rear flank of nude mice (A375: 5×10^6 cells/animal, mixed 1:1 with MATRIGEL®; Will-2; 1×10^7 cells/animal; Namalwa: 2×10^6 cells/animal; Molt 4: : 5×10^6 cells/animal, mixed 1:1 with MATRIGEL®). When tumors are established (approximately 200 mm^3, 7-21 days after implant), randomize animals, and group them into control and test groups. Formulate the test compound in 1% HEC/0.25% TWEEN®-80/0.05% Antifoam. Administer test compound and vehicles by oral gavage. Determine tumor response by tumor volume measurement (caliper) performed twice a week during the course of treatment and report as the percent inhibition of tumor volume versus the vehicle control group.

Test [1] has as its system Namalwa (Burkitt's lymphoma) cells. The test is described as follows: Xenograft tumor model, lymphoma (Namalwa). The test is classed as in vivo, mouse. Particulars: oral gavage. Here is the method: as §1, §2
The next test concerns A375 (melanoma) cells. The test is described as follows: Xenograft tumor model, melanoma (A375). The test is classed as in vivo, mouse. Particulars: 4-day-on and 3-day-off schedule for 26 days, oral gavage. Here is the method:
as §1, §2

The next test concerns GDM-1 cells. The test is described as follows: Combination with BCL2 inhibitor ABT-199 in AML cell lines, 4-day cell proliferation assay. The test is classed as cell-based. The following applies: Homo sapiens, 96 h; GDM-1, treatment duration 4 Days; single agent or combination; read-out: Absolute IC50 (cell proliferation). Here is the method:
On day 1, plate GDM-1 [ATCC®, maintained throughout in GDM-1 assay medium: RPMI-1640 medium/20% heat-inactivated FBS (GIBCO®)] and EOL-1 cells [ATCC®, maintained throughout in EOL-1 assay medium: RPMI-1640 medium/10% heat-inactivated FBS (GIBCO®)] at 4000 and 10000 cells/well (100 μL/well) respectively, in a 96-well assay plate (BD FALCON® 35-3219). Incubate the plates in a 37° C. incubator (5% CO2) for 18-24 hr. On day 2, prepare 2.0% DMSO with assay medium (as indicated above or RPMI-1640/20% heat-inactivated FBS and RPMI-1640/10% FBS for GDM-1 and EOL-1, respectively) and add 100 μL to columns 3-12 in a preparation plate. Prepare test compounds ABT-199 at 10 μM in 2% DMSO and PRMT5 inhibitor Example 1 at 25 μM in 2% DMSO and dispense into wells A2 and B2, respectively, followed by serial dilution (1:3, 10 points) to wells A11 and B11, respectively. For combinational treatment, serially dilute test compound examples at 1:2 in assay medium (as indicated above or RPMI-1640/20% heat-inactivated FBS and RPMI-1640/10% FBS for GDM-1 and EOL-1, respectively) in wells C2-C11 (0.1 μM) to H2-H11, then serially dilute test compound ABT-199 1:3 from C2-H2 (1.0 μM) to C11-H11. […] Incubate plates for 10-15 min at room temperature before reading. Measure luminescence using the PERKIN-ELMER® ENVISION® Multi-Label Reader. […]

Each structure is given as a SMILES string.

In turn, `Nc1ncnc2c1ccn2[C@@H]1O[C@H]([C@H](O)c2ccc(Cl)cc2)[C@@H](O)[C@H]1O` [Example 1, (2R,3R,4S,5R)-2-(4-Aminopyrrolo[2,3-d]pyrimidin-7-yl)-5-[(R)-(4-chlorophenyl)-hydroxy-methyl]tetrahydrofuran-3,4-diol] displayed a tumor regression with Will-2 (DLBCL) cells (2 mg/kg BID for 14 days) of 50%. The “percent inhibition of tumor volume versus vehicle” value in the test with Will-2 (DLBCL) cells (5 mg/kg QD for 14 days) is 74%; in test [1] (2 mg/kg BID for 14 days) it was 74%; in test [1] (5 mg/kg QD for 14 days), 61%; in the test on A375 (melanoma) cells (10 mg/kg QD), 64%; with A375 (melanoma) cells (15 mg/kg), 71%. Moreover, in the test with GDM-1 cells, the IC50 worked out at 224 nM.
